This assay deals with htel, d[AG3(TTAG3)3]; htel(K) (hybrid in K+); htel(Na) (antiparallel in Na+) (DNA, G4) AGGGTTAGGGTTAGGGTTAGGG
The assay is described as follows: visible absorption titration, 380 nm, Bard fit. The note with it: pH 7, 298 K, per G-tetrad.

Turning to `N#Cc1cc2nc3c4cccnc4c4ncccc4c3nc2cc1C#N.[Ru+2].c1cnc2c(c1)ccc1cccnc12.c1cnc2c(c1)ccc1cccnc12`, the Kb is, setting by setting: (K+ (100 mM KCl), 50 mM phosphate, hybrid htel(K), site size 1.8, 7.2 μM complex) 1.1(±0.6) × 10^7 M^-1; (K+ (100 mM KCl), phosphate buffer, hybrid htel(K), site size 1.5) 4.2(±0.5) × 10^5 M^-1; (Na+ (sodium phosphate; 100 mM NaCl in TRIR samples), phosphate buffer, antiparallel htel(Na), site size 1.1) 1.9(±0.7) × 10^5 M^-1; (Na+ (sodium phosphate; 100 mM NaCl in TRIR samples), phosphate buffer, antiparallel htel(Na), site size 1.5) 2.2(±0.3) × 10^6 M^-1.

The values above are taken from PMC10557146 (2023).
